A short description of data set [1]: Kinetics of H2O2-mediated boronate deprotection. As to conditions: pseudo-first-order conditions, 5 μM dye, 10 mM H2O2. On the procedure:
(§1) MitoPY1 features two major visible region absorptions (λabs=489 nm, ε=14,300 M^−1 cm^−1; 510 nm, ε=14,200 M^−1 cm^−1) and a weak emission (λ=540 nm, Φ=0.019, FIG. S1) in 20 mM HEPES, pH 7. […] Kinetics measurements of the H2O2-mediated boronate deprotection were performed under pseudo-first-order conditions (5 μM dye, 10 mM H2O2), giving an observed rate constant of k=2.0(1)×10^−3 s^−1.

In data set [2] the test system is HeLa cells. The format is cell-based. On the procedure: 100 μM H2O2 was then added to one of the petri dishes. At 20 minutes, 50 nM MitoTracker Deep Red, 500 nM Lysotracker Red, and 1 μM Hoechst 33342 were added to both dishes. After an additional 20 minutes (40 minute stimulation total), the two coverslips were put in a single, new petri dish filled with fresh DPBS and confocal images were taken (3.2 μsec pixel time, 100% laser power for 514 line, 4.1% laser power for the 633 line, 26% laser power for the 543 line, scanned using 12-bit multi-track scan mode using a constant receiver gain). Shown above are signals from MitoPY1 (a), MitoTracker Deep Red (b), LysoTracker Red (c), an overlay of MitoTracker Deep Red and MitoPY1 (d), Hoechst (e), and a brightfield image (f) of cells not treated with H2O2, as well as signals from MitoPY1 (g), MitoTracker Deep Red (h), LysoTracker Red (i), an overlay of MitoTracker Deep Red and MitoPY1 (j), Hoechst (k), and a brightfield image (l) of cells treated with H2O2. A 20 μm scale bar shown for all images.
HeLa cells incubated with 5 μM MitoPY1 for 60 min at 37° C. and imaged with MitoPY1 (a), MitoTracker Red and Hoechst (overlay, b), and MitoPY1 with MitoTracker Red (overlay, c). HeLa cells incubated with 5 μM MitoPY1 for 60 min at 37° C. with 100 μM H2O2 added for the final 40 min and imaged with MitoPY1 (d), MitoTracker Red and Hoechst (overlay, e), MitoPY1 and MitoTracker Red (overlay, f), and brightfield (g) with 20 μm scale bar. HeLa cells incubated with 5 μM MitoPY1 for 60 min at 37° C. and imaged with MitoPY1 (h), MitoTracker Red and Hoechst (overlay, i), and MitoPY1 with MitoTracker Red (overlay, j). HeLa cells incubated for 24 h with 1 mM paraquat, then washed and incubated with 5 μM MitoPY1 for 60 min at 37° C. and imaged with MitoPY1 (k), MitoTracker Red and Hoechst (overlay, l), MitoPY1 and MitoTracker Red (overlay, m), and brightfield (n) with 20 μm scale bar.
HEK293 cells were cultured in DMEM (Invitrogen) supplemented with 10% fetal bovine serum (FBS, Hyclone) and glutamine (2 mM). CHO.K1 cells were cultured in DMEM with F-12 supplements, glutamax (Invitrogen), and 5% FBS. Cos-7 cells were cultured in DMEM with high glucose, glutamax, 10% FBS, and non-essential amino acids (Invitrogen). HeLa cells were cultured in DMEM with high glucose, glutamax, and 10% FBS. Two days before imaging, cells were passaged and plated on 18-mm glass coverslips. For all experiments, solutions of dyes (from 5 mM stocks in DMSO) were made in DBPS with calcium chloride and magnesium chloride (Sigma). H2O2 was added by bath application to the medium from a 100 mM aqueous stock. For paraquat treatment, HeLa cells were cultured as described above. One day prior to imaging, 1 mM paraquat was added to cells from a 0.5 M stock solution in water. An equal amount of water was added to control cells at the same time. Cells were then incubated at 37° C., 5% CO2. After 24 hours, the media was exchanged for DPBS with 5 μM dye and incubated for 1 hour.
Confocal fluorescence imaging studies were performed with a Zeiss LSM510 NLO Axiovert 200 laser scanning microscope and a 63× Achroplan IR water-immersion objective lens. Excitation of PY-loaded cells at 510 nm was carried out with an Ar laser and emission was collected using a META detector between 527-580 nm. MitoTracker Deep Red was excited with a 633-nm line and emission was collected between 666-698 nm. LysoTracker Red was excited with a 543-nm line and emission was collected between 580-644 nm. Excitation of Hoechst 33342 was carried out using a MaiTai two-photon laser at 780-nm pulses (mode-locked Ti:sapphire laser, Tsunami Spectra Physics) and emission was collected between 452-537 nm. Image analysis was performed in Adobe Photoshop.
MitoPY1 was tested for its ability to both target the mitochondria and respond to H2O2 in living biological systems. […] Again, co-staining with MitoTracker confirms that the dye is retained in the mitochondria and detects localized rises in H2O2 concentrations.

Data set [3] is described as follows: Absorption and emission properties, fluorescence quantum yield. The format is physicochemical. As to conditions: 20 mM HEPES, pH 7. On the procedure:
(§2) Millipore water was used to prepare all aqueous solutions. All spectroscopic measurements were performed in 20 mM HEPES buffer, pH 7. Absorption spectra were recorded using a Varian Cary 50 spectrophotometer (Walnut Creek, Calif.). Fluorescence spectra were recorded using a Photon Technology International Quanta Master 4 L-format scanning spectrofluorometer (Lawrenceville, N.J.) equipped with an LPS-220B 75-W xenon lamp and power supply, A-1010B lamp housing with integrated igniter, switchable 814 photon-counting/analog photomultiplier detection unit, and MD5020 motor driver. Samples for absorption and fluorescence measurements were contained in 1-cm×1-cm quartz cuvettes (1.4- or 3.5-mL volume, Starna, Atascadero, Calif.).
as §2, with “recorded on” for “recorded using”, “Creek, Calif.) and fluorescence” for “Creek, Calif.). Fluorescence”, “and emission” for “and fluorescence”, “cuvettes (1.5-mL” for “cuvettes (1.4- or 3.5-mL”, “Calif.). Fluorescence quantum yields were determined by reference to fluorescein in 0.1M NaOH (Φ=0.95).” for “Calif.).”

A short description of data set [4]: Turn-on fluorescence responses to a panel of biologically relevant ROS. As to conditions: 20 mM HEPES, pH 7, 25° C. On the procedure: Bars represent relative responses at 0, 5, 15, 30, 45, and 60 min after addition of each ROS. Data shown are for 10 mM O2- (with 10 μM catalase), 200 μM NO, and 100 μM for all other ROS. Data were acquired at 25° C. in 20 mM HEPES, pH 7, with excitation at λ=510 nm and emission collected between 518 and 750 nm.
as §1

In data set [5] the test system is HeLa cells. As to conditions: cited from earlier work.

On to `CC1(C)OB(c2ccc3c(c2)Oc2cc(N4CCN(CCCC[P+](c5ccccc5)(c5ccccc5)c5ccccc5)CC4)ccc2C32OC(=O)c3ccccc32)OC1(C)C.[I-]` (centres unmarked) [MitoPY1], for which the “observed rate constant k of H2O2-mediated boronate deprotection” value in data set [1] is on record as 2.0(1)×10^−3 s^−1. Moreover, in the data set on HeLa cells [2], the “cell viability during imaging” value was “cells are viable throughout the imaging experiments”. The “fluorescence of probe-loaded cells without H2O2” value in the data set with HeLa cells [2] (5 μM probe, 1 h at 37° C.) was “faint but measurable levels of fluorescence”. In addition, the “subcellular localization (co-staining with MitoTracker Deep Red, LysoTracker Red)” value in the data set on HeLa cells [2] (5 μM probe, 50 nM MitoTracker Deep Red, 500 nM LysoTracker Red) is recorded as “localized to the mitochondria”. Further, in the data set with HeLa cells [2] (100 μM H2O2), the “fluorescence after addition of H2O2 compared to control cells” value is reported as “marked localized increase in fluorescence”. For the same molecule, in the data set on HeLa cells [2] (1 mM paraquat 24 h, then 5 μM probe, compared to control cells), the “detection of endogenous mitochondrial H2O2 in paraquat-treated cells” value was “clear increases in mitochondrial-localized H2O2 levels”. Further, the “fluorescence quantum yield Φ” value in data set [3] (by reference to fluorescein) is reported as 0.019. Also, the “extinction coefficient ε at 489 nm” value in data set [3] (λabs 489 nm) is listed as 14,300 M^−1 cm^−1. The “extinction coefficient ε at 510 nm” value in data set [3] (λabs 510 nm) was 14,200 M^−1 cm^−1. Also, the “selectivity of turn-on response for H2O2 over other ROS” value in data set [4] is “selective for H2O2 over ROS like superoxide, nitric oxide, and hydroxyl radical”.

By IC50 is commonly meant the midpoint of a concentration-inhibition curve. Regarding `C[n+]1ccc(-c2cc[n+](C)cc2)cc1` [paraquat], the IC50 with HeLa cells [5] is 1020 µM.

Source of the values: patent publication US8791258B2, “Pro-fluorescent probes” (The Regents of the University of California, priority 2008, dated 2014).
